One assay has as its system MC-38. As to the kind of experiment: The compound was tested for antitumor activity against mouse tumor C38 cells. Format: functional.
Assay [1] is described as follows: The compound was tested for antitumor activity against normal cells (fibroblast). Format: functional, Homo sapiens.
A short description of assay [2]: The compound was tested for antitumor activity against human tumor H15 cells. In kind it is functional.
Assay [3] can be described thus: The compound was tested for antitumor activity against human colon tumor H116 cells. In kind it is functional.
Assay [4] is described as follows: The compound was tested for antitumor activity against mouse tumor M17/Adr cells. In kind it is functional.
The nature of assay [5]: The compound was tested for antitumor activity against L1210 cells. Format: functional, Mus musculus.

As to `Nc1ncnc2c1ncn2/C=C1\C(CO)C1(F)F` (configuration not stated), the Activity in the assay on MC-38 is listed as 470; in assay [1], 130; in assay [2] it was 300; in assay [3] it was 200; in assay [4] it was 370; in assay [5], 420.
Regarding `Nc1ncnc2c1ncn2/C=C1/C(CO)C1(F)F` (configuration not stated), the Activity amounted to 580 with MC-38; 500 in assay [1]; 550 in assay [2]; 550 in assay [3]; 590 in assay [4]; 660 in assay [5].
Consider `Nc1ncnc2c1ncn2/C=C1/CC1CO` (configuration not stated), for which the Activity in the assay on MC-38 is 600; in assay [1], 130; in assay [3] it was 160; in assay [4], 460; in assay [5], 570.

Values taken from ChEMBL document CHEMBL1134839, “Methylene-gem-difluorocyclopropane analogues of nucleosides: synthesis, cyclopropene-methylenecyclopropane rearrangement, and biological activity” (2001).
